The values below come from ChEMBL document CHEMBL4371036, “Discovery and structure-activity relationship of imidazolinylindole derivatives as kallikrein 7 inhibitors” (Bioorg Med Chem Lett, 2019).

The target in experiment [1] is Kallikrein-7 (Homo sapiens, UniProt P49862). Briefly: Inhibition of thermolysin activated recombinant human C-terminal 10-His tagged KLK7 (E23 to H252 residues) using MOCAc-Arg-Pro-Lys-Pro-Val-Glu-Nva-Trp-Arg-Lys(Dnp)-NH2 as substrate preincubated for 10 mins followed by substrate addition and measured after 30 mins by fluorescence analysis.
For experiment [2], the target named is Kallikrein-7 (Mus musculus, UniProt Q91VE3). Briefly: Inhibition of enterokinase activated recombinant mouse C-terminal His6-tagged KLK7 (Gln22 to Arg249 residues) using MOCAc-Arg-Pro-Lys-Pro-Val-Glu-Nva-Trp-Arg-Lys(Dnp)-NH2 as substrate preincubated for 10 mins followed by substrate addition and measured after 30 mins by fluorescence analysis.
Experiment [3] concerns the target Kallikrein-7 (Mus musculus) (UniProt Q91VE3). Briefly: Inhibition of enterokinase activated recombinant mouse C-terminal His6-tagged KLK7 (Gln22 to Arg249 residues) at 100 uM using MOCAc-Arg-Pro-Lys-Pro-Val-Glu-Nva-Trp-Arg-Lys(Dnp)-NH2 as substrate preincubated for 10 mins followed by substrate addition and measured after 30 mins by fluorescence analysis relative to control.

Chain of Kallikrein-7 (Mus musculus) (Q91VE3 whole entry): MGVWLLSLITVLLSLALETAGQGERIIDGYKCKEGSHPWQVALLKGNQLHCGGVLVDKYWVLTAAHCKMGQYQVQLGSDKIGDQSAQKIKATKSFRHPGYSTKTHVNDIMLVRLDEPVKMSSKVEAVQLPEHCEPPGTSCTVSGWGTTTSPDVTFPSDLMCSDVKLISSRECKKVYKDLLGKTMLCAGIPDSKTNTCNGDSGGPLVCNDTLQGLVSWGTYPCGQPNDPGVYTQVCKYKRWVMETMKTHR
Chain of Kallikrein-7 (Mus musculus, UniProt Q91VE3) (Q91VE3 whole entry): as above
Chain of Kallikrein-7 (Homo sapiens, UniProt P49862) (P49862 whole entry, the tested form may be a part): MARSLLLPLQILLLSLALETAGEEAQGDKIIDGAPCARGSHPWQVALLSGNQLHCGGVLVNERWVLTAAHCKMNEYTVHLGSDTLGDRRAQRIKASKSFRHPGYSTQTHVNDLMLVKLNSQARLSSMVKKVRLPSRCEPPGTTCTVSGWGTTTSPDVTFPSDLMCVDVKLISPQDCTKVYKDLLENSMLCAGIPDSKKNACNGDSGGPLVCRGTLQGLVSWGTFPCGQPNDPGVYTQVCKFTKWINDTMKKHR

Consider `CC1=NC(c2cn(Cc3ccc(Cl)cc3)c3ccccc23)CN1` (configuration not stated), for which, at Kallikrein-7 [1], the IC50 (usually the concentration that gives 50% inhibition) was 22 µM.

`CC1=NC(c2cn(S(=O)(=O)c3ccccc3)c3ccc(C)cc23)CN1` (configuration not stated): the IC50 turned out to be 15 µM at Kallikrein-7 [2] and 17 µM on Kallikrein-7 [1].

Turning to `CC1=NC(c2cn(S(=O)(=O)c3cccs3)c3ccc(C)cc23)CN1` (configuration not stated), the IC50 on Kallikrein-7 [2] amounted to 22 µM; on Kallikrein-7 [1] it was 11 µM.

For `CC1=NC(c2cn(S(=O)(=O)c3ccccc3F)c3ccc(C)cc23)CN1` (configuration not stated), the values for the IC50 on Kallikrein-7 [2] and at Kallikrein-7 [1] were 6.4 µM and 4.1 µM, respectively.

For the molecule `CC1=NC(c2cn(S(=O)(=O)c3cccc(Cl)c3)c3ccccc23)CN1` (configuration not stated), the inhibition (as a rule, the drop in the measured response relative to a control, in per cent) in experiment [3] was 77%. Moreover, the IC50 at Kallikrein-7 [1] is > 30 µM.

On to `CC1=NC(c2cn(S(=O)(=O)c3ccccc3C#N)c3ccc(C)cc23)CN1` (configuration not stated), for which the IC50 at Kallikrein-7 [2] came to 11 µM; at Kallikrein-7 [1], 6.7 µM.

Consider `CC1=NC(c2cn(S(=O)(=O)c3ccc(Cl)cc3)c3ccccc23)CN1` (configuration not stated), for which the inhibition in experiment [3] turned out to be 17%. Also, the half-inhibitory concentration (IC50) on Kallikrein-7 [1] was determined as 5.7 µM.

In the case of `CC1=NC(c2cn(S(=O)(=O)c3ccc(C)cc3)c3ccccc23)CN1` (configuration not stated), the inhibition in experiment [3] is 14%. On Kallikrein-7 [1], the IC50 was 10 µM.

Turning to `CC1=NC(c2cn(S(=O)(=O)c3ccccc3Br)c3ccc(C)cc23)CN1` (configuration not stated), the results for the half-maximal inhibitory concentration (IC50) at Kallikrein-7 [2] and on Kallikrein-7 [1] were 0.4 µM and 0.39 µM, respectively.

For `CC1=NC(c2cn(S(C)(=O)=O)c3ccccc23)CN1` (configuration not stated), on Kallikrein-7 [1], the IC50 was > 100 µM.

As to `CC1=NC(c2cn(S(=O)(=O)c3ccccc3C)c3ccc(C)cc23)CN1` (configuration not stated), the IC50 worked out at 1.3 µM on Kallikrein-7 [2] and 1 µM on Kallikrein-7 [1].

Turning to `CC1=NC(c2cn(S(=O)(=O)c3ccc(F)cc3)c3ccc(C)cc23)CN1` (configuration not stated), the IC50 on Kallikrein-7 [2] is > 30 µM; at Kallikrein-7 [1] it was 9.4 µM.

For the molecule `CC1=NC(c2cn(S(=O)(=O)c3c(Cl)cccc3Cl)c3ccc(C)cc23)CN1` (configuration not stated), the IC50 on Kallikrein-7 [2] came to 10 µM; at Kallikrein-7 [1], 14 µM.

Turning to `CCC1=NC(c2cn(S(=O)(=O)c3ccc(C)cc3)c3ccccc23)CN1` (configuration not stated), the IC50 at Kallikrein-7 [1] came out at 24 µM.

For the molecule `CC1=NC(c2cn(S(=O)(=O)c3ccc(Cl)cc3)c3ccccc23)CN1C` (configuration not stated), the half-maximal inhibitory concentration (IC50) at Kallikrein-7 [1] is > 30 µM.

As for `CC1=NC(c2cn(S(=O)(=O)c3ccc(Cl)cc3)c3ccc(Br)cc23)CN1` (configuration not stated), the inhibition in experiment [3] stood at 35%. Further, the IC50 on Kallikrein-7 [1] came to 4.7 µM.

As for `Cc1ccc(S(=O)(=O)n2cc(C3CNC(C(C)C)=N3)c3ccccc32)cc1` (configuration not stated), the IC50 at Kallikrein-7 [1] came to 70 µM.

For `Cc1ccc(S(=O)(=O)n2cc(C3CNC(C4CCCCC4)=N3)c3ccccc32)cc1` (configuration not stated), at Kallikrein-7 [1], the IC50 was > 100 µM.

Take `CC1=NC(c2cn(S(=O)(=O)c3cccc(Cl)c3)c3ccc(C)cc23)CN1` (configuration not stated): the IC50 at Kallikrein-7 [2] came out at 10 µM; at Kallikrein-7 [1], 30 µM.

Regarding `CC1=NC(c2cn(S(=O)(=O)c3ccc(Cl)cc3)c3ccc(C)cc23)CN1` (configuration not stated), the inhibition in experiment [3] worked out at 33%. In addition, the IC50 on Kallikrein-7 [2] was > 100 µM; on Kallikrein-7 [1] it was 1.9 µM.

In the case of `CC1=NC(c2cn(S(=O)(=O)c3ccccc3Cl)c3ccc(C)cc23)CN1` (configuration not stated), the IC50 on Kallikrein-7 [2] is 1.5 µM; at Kallikrein-7 [1] it was 1.2 µM.
